{"source": "patent US9051564B2", "about": "“Compositions for and methods of identifying antigens” (President and Fellows of Harvard College, priority 2006, dated 2015)", "molecules": {"B1": {"name": "Cta1: Chlamydia-specific T cell antigen-1, protein encoded by C. trachomatis ORF CT788; predicted periplasmic protein of unknown function (protein, listed as Chlamydia trachomatis)", "chain": "MNSGMFPFTFFLLYICLGMLTAYLANKKNRNLIGWFLAGMFFGIFAIIFLLILPPLPSSTQDNRSMDQQDSEEFLLQNTLEDSEIISIPDTMNQIAIDTEKWFYLNKDYTNVGPISIVQLTAFLKECKHSPEKGIDPQELWVWKKGMPNWEKVKNIPELSGTVKDE"}}, "note": "“Also recorded” adds a separate entry of the source."}
{"tested_on": "T cell clone NR9.2", "assay": "Screen of E. coli clones expressing C. trachomatis ORFs, cultured with BMMs and T cell clone NR9.2, IFNγ ELISA", "type": "cell-based, mouse", "settings": "894 ORFs screened; E. coli expressing the protein", "experimental": "(§1) FIG. 15 is an image showing clones of E. coli expressing individual C. trachomatis ORFs cultured with BMMs and then incubated with the T cell clone NR9.2. […] E. coli expressing Cta1 (encoded by ORF CT788) induced NR9.2 to secrete high levels of IFNγ (>370 ng/ml) whereas E. coli expressing other Chlamydia proteins in the library induced only background levels of IFNγ secretion (<26 ng/ml). The well indicated as Cta1 and ELISA Standards are yellow; other wells are colorless. […] ELISA standards corresponding to high amounts of IFNγ are indicated.\n(§2) Chlamydia specific CD4+ T cell clone. To identify a Chlamydia-specific TCR for the creation of TCR transgenic mice, we generated a Chlamydia-specific CD4^+ T cell clone named NR9.2. The clone specifically secreted IFNγ when co-cultured with Chlamydia-infected macrophages in an intracellular cytokine staining assay (FIG. 13A). […] A library of proteins expressed by the C. trachomatis ORFs contained in the genome database was screened. […] CT788 was annotated in the published C. trachomatis genome as a predicted periplasmic protein of unknown function (Stephens et al., Science 282:754-759, 1998), and its sequence shares little homology with proteins outside of the Chlamydia genus. CT788 was designated Cta1 (Chlamydia-specific T cell antigen-1).\n(§3) Identification of the T cell antigen Cta1. […]"}
{"molecule": "B1", "stimulation of NR9.2 to secrete IFNγ (in words)": "stimulated NR9.2 to secrete significant levels of IFNγ"}
{"tested_on": "T cell clone NR9.2", "assay": "Screen of E. coli clones expressing C. trachomatis ORFs, cultured with BMMs and T cell clone NR9.2, IFNγ ELISA", "type": "cell-based, mouse", "settings": "E. coli expressing the ORF, cultured with BMMs then NR9.2; supernatant IFNγ ELISA", "experimental": "as §1, §2, §3", "units": {"IFNγ secreted by NR9.2": "ng/mL"}}
{"molecule": "B1", "IFNγ secreted by NR9.2": "> 370"}
{"tested_on": "T cell clone NR9.2", "assay": "Epitope mapping: overlapping synthetic 20-mer Cta1 peptides tested for stimulating NR9.2 to secrete IFNγ (ELISA)", "type": "cell-based, mouse", "settings": "T cell line NR9.2, synthetic peptides at 25 μM", "excerpt": "(§4) FIG. 22 is a graph showing T cell clone NR9.2 recognizes the novel T cell antigen Cta1133-152 (SEQ ID NO:2). The antigenic peptide from Cta1 was mapped by testing overlapping 20-mer synthetic peptides for their ability to stimulate NR9.2 to secrete IFNγ. […] Shown below is the protein sequence of Cta1 (SEQ ID NO:1) with […] (SEQ ID NO:2) underlined.\n(§5) To map more closely the epitope within Cta1 recognized by the NR9.2 T cells, a series of overlapping 20-mer peptides covering the Cta1 sequence for their ability to stimulate NR9.2 to secrete IFNγ were screened (Table 2).\n(§6) Identification of the T cell antigen Cta1. An expression library of genomic sequences from C. trachomatis serovar D was inserted into a modified form of the pDEST17 vector (Invitrogen) and transformed into the Stb12 strain of E. coli (Invitrogen). Following induction of protein expression, the bacteria were fixed in 0.5% paraformaldehyde and incubated with BMMs. NR9.2 T cells were then added and after 24 h, the supernatant was tested for the level of IFNγ by ELISA (Endogen, Rockford, Ill.). To identify the reactive peptide epitope within Cta1, synthetic 20-mer peptides (MIT Biopolymers Lab, Cambridge, Mass.) were used at a concentration of 25 μM in an IFNγ ELISA (Endogen)."}
{"molecule": "EFLLQNTLEDSEIISIPDTM [overlapping synthetic 20-mer peptide of Cta1]", "IFNγ measured": "0.6 (±0.2) ng"}
{"molecule": "FLKECKHSPEKGIDPQELWV [overlapping synthetic 20-mer peptide of Cta1]", "IFNγ measured": "0.5 (±0.4) ng"}
{"molecule": "FYLNKDYTNVGPISIVQLTA [overlapping synthetic 20-mer peptide of Cta1]", "IFNγ measured": "0.7 (±0.4) ng"}
{"molecule": "GCANKKNRNLIGWFLAGMFF [overlapping synthetic 20-mer peptide of Cta1]", "IFNγ measured": "0.5 (±0.3) ng"}
{"molecule": "GIFAIIFLLILPPLPSSTQD [overlapping synthetic 20-mer peptide of Cta1]", "IFNγ measured": "0.4 (±0.2) ng"}
{"molecule": "GPISIVQLTAFLKECKHSPE [overlapping synthetic 20-mer peptide of Cta1]", "IFNγ measured": "0.5 (±0.3) ng"}
{"molecule": "IGWFLAGMFFGIFAIIFLLI [overlapping synthetic 20-mer peptide of Cta1]", "IFNγ measured": "0.6 (±0.3) ng"}
{"molecule": "KGIDPQELWVWKKGMPNWEK (listed as Chlamydia trachomatis) [20-mer peptide, amino acids 133-152 of Cta1 (CT788)]", "IFNγ measured": "58.0 (±14.0) ng"}
{"molecule": "LESTSLYKKAGCANKKNRNL [overlapping synthetic 20-mer peptide of Cta1]", "IFNγ measured": "0.4 (±0.2) ng"}
{"molecule": "LPPLPSSTQDNRSMDQQDSE [overlapping synthetic 20-mer peptide of Cta1]", "IFNγ measured": "0.6 (±0.2) ng"}
{"molecule": "NQIAIDTEKWFYLNKDYTNV [overlapping synthetic 20-mer peptide of Cta1]", "IFNγ measured": "0.5 (±0.2) ng"}
{"molecule": "NRSMDQQDSEEFLLQNTLED [overlapping synthetic 20-mer peptide of Cta1]", "IFNγ measured": "0.6 (±0.3) ng"}
{"molecule": "QSGVAGLEQLESI [C-terminal overlapping synthetic peptide of Cta1]", "IFNγ measured": "0.8 (±0.2) ng"}
{"molecule": "SEIISIPDTMNQIAIDTEKW [overlapping synthetic 20-mer peptide of Cta1]", "IFNγ measured": "0.6 (±0.2) ng"}
{"molecule": "VKDESPSFLVQSGVAGLEQL [overlapping synthetic 20-mer peptide of Cta1]", "IFNγ measured": "0.7 (±0.2) ng"}
{"molecule": "VKNIPELSGTVKDESPSFLV [overlapping synthetic 20-mer peptide of Cta1]", "IFNγ measured": "0.8 (±0.1) ng"}
{"molecule": "WKKGMPNWEKVKNIPELSGT [overlapping synthetic 20-mer peptide of Cta1]", "IFNγ measured": "1.4 (±0.2) ng"}
{"tested_on": "T cell clone NR9.2", "assay": "Epitope mapping: overlapping synthetic 20-mer Cta1 peptides tested for stimulating NR9.2 to secrete IFNγ (ELISA)", "type": "cell-based, mouse", "settings": "overlapping 20-mer peptides, listed as Cta1133-152", "excerpt": "as §4, §5, §6"}
{"molecule": "KGIDPQELWVWKKGMPNWEK (listed as Chlamydia trachomatis) [20-mer peptide, amino acids 133-152 of Cta1 (CT788)]", "ability to stimulate NR9.2 to secrete IFNγ (in words)": "induced NR9.2 to secrete significant levels of IFNγ; also recorded: stimulated NR9.2 to secrete significant levels of IFNγ"}
{"tested_on": "spleen cells from NR1 TCR transgenic mice", "assay": "Proliferation of NR1 transgenic splenocytes in response to peptide ([3H]thymidine incorporation)", "type": "cell-based, mouse", "settings": "spleen cells from naïve NR1 mice", "experimental": "FIG. 16B is a graph showing proliferation of splenocytes from NR1 transgenic or non-transgenic mice in response to the indicated concentrations of Cta1133-152 (SEQ ID NO:2). Proliferation was measured by [^3H]thymidine incorporation into cells.\nTo determine whether the NR1 transgenic T cells were specific and responsive to Cta1, we tested the proliferation of transgenic spleen cells in response to Cta1133-152 (see FIG. 14; SEQ ID NO:2)."}
{"molecule": "KGIDPQELWVWKKGMPNWEK (listed as Chlamydia trachomatis) [20-mer peptide, amino acids 133-152 of Cta1 (CT788)]", "proliferation of NR1 spleen cells in response to peptide": "strong proliferative response"}
{"molecule": "OVA323-336: control peptide from ovalbumin (KISQAVHAAHAEIN) [reference compound]", "proliferation of NR1 spleen cells in response to peptide": "did not proliferate"}
{"tested_on": "spleen cells from NR1 TCR transgenic mice", "assay": "IFNγ secretion by NR1 spleen cells in response to peptide", "type": "cell-based, mouse", "settings": "data not shown"}
{"molecule": "KGIDPQELWVWKKGMPNWEK (listed as Chlamydia trachomatis) [20-mer peptide, amino acids 133-152 of Cta1 (CT788)]", "IFNγ secretion by NR1 spleen cells in response to peptide": "secreted high levels of IFNγ"}
